From US20210228523A1, “MODULATORS OF SESTRIN-GATOR2 INTERACTION AND USES THEREOF” (Navitor Pharmaceuticals, Inc., priority 2017, published 2021)

Columns and labels:
[1] = system: marmosets (Callithrix jacchus); test: Marmoset Human Threat Test (HTT); format: in vivo; conditions: Example J, ketamine 0.3 mg/kg i.m.
Source text: Marmoset Human Threat Test (HTT): Marmosets were challenged by the presence of a human observer over a long period of time on a regular basis. Such chronic stimulation is known to increase plasma cortisol and the subsequent increase in hypothalamic-pituitary-adrenal function contributed to the pathophysiology of depressive illness.
Study Design: Thirty-six (36) marmosets (Callithrix jacchus) were paired and divided randomly divided into treatment groups. Twenty-four hours before the Human Threat Test (HTT) animals were treated with vehicle, ketamine (0.3 mg/kg; i.m.) or NV-5138 (160 mg/kg; p.o.). The following day, the same animals were treated with either vehicle (s.c.) or chloriazepoxide (1 mg/kg; s.c.). The animals were then monitored for the number of threat postures over a two (2) minutes period with the presence of a human observer. Locomotor activity was monitored over the same period, as measured by the number of jumps observed.

[2] = system: Male Sprague Dawley rats; test: Novelty Suppressed Feeding Test (NSFT) with home cage feeding control; format: in vivo, rat; conditions: Example I; Ket 10 mg/kg i.p. on alternate days (day 0, 2, 4, 6); day 9
Experimental: Behavioral Analysis Using the Novelty Suppressed Feeding Test (NSFT): The NSFT was conducted as previously described (Warner-Schmidt, J. L. & Duman, R. S. PNAS 104(11): 4647-52 (2007)). Rats were fasted in their home cages for 20 hr and then placed in a Plexiglas open field (76.5 cm×76.5 cm×40 cm) with a small amount of food in the center. Animals were allowed to explore the open field for 8 min and the latency to feed (s) was recorded.
Chronic Unpredictable Stress (CUS) Conditions: Rats were exposed to a variable sequence of 12 unpredictable stressors, preventing habituation as described (Li, N. et al., Biol Psychiatry 69(8): 754-61 (2011)). The following twelve stressors were applied (2 per day, for 25 days): cage rotation, light on, light off, cold stress, isolation, swim stress, food and water deprivation, wet bedding, stroboscope, cage tilt, odor exposure and group housing. The animals in non-stressed (NS) groups were housed normally without the application of external stressors. Both NS and CUS rats were handled and weighed weekly.
Study Design. Thirty-two (32) male Sprague Dawley Male rats weighing between 175 and 200 g were randomized into 4 study groups (n=8/treatment group), following a 5-day acclimation period. On study day 0, rats received a single dose of either saline (Sal) or ketamine (Ket) in Groups 1 and 2, respectively, by intraperitoneal injection (i.p.). The rats in Group 3 and 4 received a single dose of the NV-5138 vehicle (Veh, 0.5% Methylcellulose/0.1% Tween-80) or NV-5138 (160 mg/kg), respectively, by oral gavage. All rats were subjected to the FUST on day 1, 24 hrs after dosing. On day 2, 48 hrs after dosing, the LMA of all rats was measured in an open field. Rats were then fasted for 20 hrs and subjected to the NSFT, 72 hrs post-dose.
Study Design: Fifty-six (56) male rats weighing between 175 and 200 g were randomized into 4 study groups (n=14/group), following a 5-day acclimation period. On study day minus 20, two groups of rats were subjected to CUS for 25 days and two groups of rats were housed normally serving as the NS group. On the day 21 of the CUS protocol, rats received a single dose of either Veh or NV-5138 (160 mg/kg) by oral gavage (day 0). The SPT and NSFT were performed 24 and 48 hrs post-administration (days 1 and 2), respectively. Upon completion of the behavioral tests, after 25 days of the CUS protocol a second dose of NV-5138 or Veh was administered on day 5 and rats were sacrificed 24 hrs later by conscious decapitation. Crude synaptosomes were prepared from the PFC and the synaptic proteins, GluR1 and PSD95 were quantitated by WB.
Study Design. Twenty (20) male rats weighing between 175 and 200 g were randomized into 3 study groups (n=6-7/group), following a 5-day acclimation period. All rats were surgically implanted with bilateral IT cannulas in the PFC 2 weeks prior to dosing. […] Thirty minutes following the intrathecal infusions, either NV-5138 vehicle (Veh-NV, 0.5% methylcellulose/0.1% Tween-80) or NV-5138 (160 mg/kg) was administered by oral gavage. Each treatment group was assessed at the designated time following oral dosing in FST 24 hrs (day 1) LMA 48 hrs (day 2) and the NSFT 72 hrs (day 3 following a 20 hr period of fasting). LMA was measured to rule out overall changes in generally locomotor activity. The study design is presented in Table 11 with timeline of surgical procedures, test article administration and behavioral tests is provided in FIG. 20
Study Design. Forty-eight (48) male rats weighing between 175 and 200 g were randomized into 6 study groups (n=8/group), following a 5-day acclimation period. A single dose of all test articles was administered on day 0 and the behavioral tests were performed 3, 7 and 10 days later. Groups 1 and 2 were dosed on day 0 with NV-5138 (160 mg/kg by oral gavage) and Ket (10 mg/kg by i.p. injection), respectively and subjected to a FST on day 3. […]

[3] = biological target: T1, Sestrin2 (Homo sapiens, UniProt P58004); test: Indirect ligand binding assay (ILBA, Method 7), immunoprecipitation with CST anti-Sestrin2 antibody; parameters: endogenous in cells; host or cells: unnamed human cell line (crude lysate after 1 h amino acid starvation); conditions: crude lysate of amino acid-starved human cell line; 1 hour incubation
T1 sequence (P58004 1-480): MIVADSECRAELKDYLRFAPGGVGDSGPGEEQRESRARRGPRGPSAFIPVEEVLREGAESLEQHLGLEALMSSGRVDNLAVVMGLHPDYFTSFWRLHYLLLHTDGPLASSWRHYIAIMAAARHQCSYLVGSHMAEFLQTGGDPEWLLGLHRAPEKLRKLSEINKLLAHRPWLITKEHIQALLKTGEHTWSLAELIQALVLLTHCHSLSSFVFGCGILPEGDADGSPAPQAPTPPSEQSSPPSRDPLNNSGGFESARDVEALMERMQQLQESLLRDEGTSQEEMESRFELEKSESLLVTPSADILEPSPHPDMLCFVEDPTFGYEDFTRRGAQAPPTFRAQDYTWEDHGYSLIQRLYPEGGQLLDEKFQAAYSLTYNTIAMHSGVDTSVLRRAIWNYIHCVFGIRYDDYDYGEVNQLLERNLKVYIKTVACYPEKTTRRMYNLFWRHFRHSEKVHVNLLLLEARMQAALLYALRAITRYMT
Experimental: Conversely, compounds that destabilized Sestrin2 as measured by thermal shift assay increased the affinity of the CST antibody for non-denatured Sestrin2. […] In one version, the assay was performed with crude lysate generated from a human cell line after a 1-hour period of amino acid starvation (cells are lysed in 1% Triton, 10 mM beta-glycerol phosphate, 10 mM sodium pyrophosphate, 40 mM HEPES [pH 7.4], 150 mM NaCl and 2.5 mM MgCl2). […] After compound incubation, samples were subjected to immunoprecipitation with the CST anti-Sestrin2 antibody for 1.5 hours followed by a 30-minute incubation with protein-A sepharose as described in L. Chantranupong, et al., Cell Reports 9:1-8 (2014). The sepharose conjugated antibody-protein complex was precipitated via centrifugation and the flow-through was subjected to a second round of immunoprecipitation with a rabbit polyclonal anti-Sestrin2 antibody (Protein Tech, #10795-1-AP) to determine that total Sestrin2 protein levels between samples were equal. SDS-PAGE was performed with the immunoprecipitation samples followed by western-blot with the mouse monoclonal anti-Sestrin2 antibody from SIGMA (cat #WH0083667M3). […] This version of the assay also measured increased instability of Sestrin2 induced by incubation with compounds.

[4] = system: point mutant form of Sestrin2 unable to bind leucine; test: ILBA with Flag-tagged point mutant Sestrin2; format: binding, human
Experimental: This assay was also performed in cultured human cells over-expressing Sestrin2 N-terminally fused to a Flag tag. In this version of the assay, the procedure remained the same, but immunoblotting was performed with a mouse anti-Flag antibody (#F3165, SIGMA).

**Q.** Which results are given for `CNC1(c2ccccc2Cl)CCCCC1=O` (centres unmarked) [Ketamine, reference compound]?
**A.** animals that developed mild emesis ([1]; half of the animals (6 out of the 12 dosed)): 6 animals; HTT, number of threat postures ([1]; twenty-four hours after acute administration): induces an anxiolytic/antidepressant-like profile; NSFT [2]: significant effects

**Q.** `CC(C)C[C@H](N)C(=O)O` [leucine] was tested. Which “decrease in intensity of the Sestrin2 band (immunoprecipitated with CST anti-Sestrin2 antibody)” value [3] did it give?
**A.** Its value is at least 50%.

**Q.** And the “decrease in affinity of the CST antibody upon ligand binding” value [4]?
**A.** Its value is “not observed”.
